Measured values reported in patent US20250108036A1, “COMPOSITIONS FOR REMOVING SENESCENT CELLS AND USES THEREOF” (LIFECEUTIX CO., LTD., priority 2021, published 2025).

B1: LX-3103: CAS 9015-68-3 (protein, UniProt P00805 23-348, looked up)
L-asparaginase 2: LPNITILATGGTIAGGGDSATKSNYTVGKVGVENLVNAVPQLKDIANVKGEQVVNIGSQDMNDNVWLTLAKKINTDCDKTDGFVITHGTDTMEETAYFLDLTVKCDKPVVMVGAMRPSTSMSADGPFNLYNAVVTAADKASANRGVLVVMNDTVLDGRDVTKTNTTDVATFKSVNYGPLGYIHNGKIDYQRTPARKHTSDTPFDVSKLNELPKVGIVYNYANASDLPAKALVDAGYDGIVSAGVGNGNLYKSVFDTLATAAKTGTAVVRSSRVPTGATTQDAEVDDAKYGFVASGTLNPQKARVLLQLALTQTKDPQQIQQIFNQY

Assays:
Assay type in all cases: cell-based, human
senescent foreskin cells = assay: survival of senescent foreskin cells treated with medium supernatant (secreted fluid) of compound-killed cells (Example 13, Tables 68, 69); settings: culture medium supernatant from dying senescent cells treated with compound at 30 μM, 90 μM or 270 μM; senescent foreskin cells
HMGN1 [1] = assay: HMGN1 ELISA in culture medium of A549 cancer cells (Example 12, Table 66); settings: doxorubicin-induced senescent A549 cells, ELISA, DMSO = 100
[2] = test system: foreskin cells in which senescence was induced by doxorubicin; assay: CellTiter-Glo cell viability of doxorubicin-induced senescent foreskin cells (Examples 1-2, 10, 11, 13; Tables 4, 63, 65); settings: doxorubicin-induced senescent foreskin cells, CellTiter-Glo, 0 μM = 100
A549 = assay: CellTiter-Glo cell viability of senescent A549 cancer cells (Example 12, Table 67); settings: doxorubicin-induced senescent A549 cancer cells, CellTiter-Glo
HMGN1 [3] = assay: HMGN1 ELISA in culture medium of foreskin cells (Examples 10, 11; Tables 62, 63, 64); settings: doxorubicin-treated foreskin cells, DMSO = 100

Molecule | Survival (senescent foreskin cells) | HMGN1 (amount of HMGN1 secreted in the cell culture) (HMGN1 [1]; test compound 90 μM) | Survival (%) ([2]; 1.1 μM test compound) | Survival (%) ([2]; 10 μM test compound) | Survival (%) ([2]; 30 μM test compound) | Survival (%) ([2]; 90 μM test compound) | Survival (%) ([2]; […] test compound) | Survival (%) (A549; 1.1 μM test compound) | Survival (%) (A549; 10 μM test compound) | Survival (%) (A549; 30 μM test compound) | Survival (%) (A549; 90 μM test compound) | HMGN1 (HMGN1 [3]; 90 μM test compound) | HMGN1 (amount of HMGN1 secreted in the cell culture) (HMGN1 [1]; test compound 30 μM) | HMGN1 (HMGN1 [3]; 30 μM test compound) | HMGN1 (amount of HMGN1 secreted in the cell culture) (HMGN1 [1]; test compound 20 ng/ml) | HMGN1 (HMGN1 [3]; 20 ng/ml test compound)
CN(Cc1cnc2nc(N)nc(N)c2n1)c1ccc(C(=O)N[C@@H](CCC(=O)O)C(=O)O)cc1 [LX-2901, Methotrexate, reference compound] | 97.5 | 189 | 103.3% | 104.8% | 93.6% | 49.9% | 97.8% | 89% | 90.4% | 92.3% | 37.2% | 167 | – | – | – | –
O=C(O)CC([S-])C(=O)O.[Au+] (centres unmarked) [LX-202, Aurothiomalate, reference compound] | 45.7 | – | 97.4% | – | – | – | 7.6% | 96.7% | 37.3% | – | – | – | 327 | 287 | – | –
CC(N)(Cc1ccc(O)cc1)C(=O)O (racemic) [LX-3206, Racemetyrosine, reference compound] | 51.9 | – | 95.8% | 64.7% | 21.3% | – | 96% | 92.6% | 51.9% | 5.7% | – | – | 215 | 222 | – | –
LX-3401: Interferon gamma, CAS 98059-61-1 (IFNy-1b), 82115-62-6 | 66.8 | – | 101.8% | 75.8% | 35.4% | – | 98.1% | 110.8% | 58.3% | 5.8% | – | – | – | – | 284 | 198
C[N+](C)(C)CCO.C[N+](C)(C)CCO.[SH-].[SH-].[S]=[Mo]=[S] [LX-2601] | 67.3 | – | 95.2% | 58.6% | 21.8% | – | 81.8% | 98.6% | 59.7% | 50.7% | – | – | 193 | 263 | – | –
O=C(NCCCCCCCCCC[P+](c1ccccc1)(c1ccccc1)c1ccccc1)c1nn(Cc2ccc(Cl)cc2Cl)c2ccccc12.[Br-] [LX-1207] | 62.7 | – | 36.8% | – | – | – | 10% | 59.8% | – | – | – | – | 318 | 285 | – | –
[3,4,5-triacetyloxy-6-[4-[2-[(dimethylamino)methyl]prop-2-enoyl]phenoxy]oxan-2-yl]methyl acetate [LX-918] | 63.8 | 200 | 98.9% | 94.5% | 32.7% | – | 95.4% | 103.8% | 86.7% | 82.9% | 31.8% | – | – | 247 | – | –
CN1CC[C@@H](Nc2cccc3c2cc(-c2noc(CNC(=O)c4cnn(C(C)(C)C)c4)n2)n3CC(F)(F)F)[C@@H](F)C1 [LX-915] | 53.1 | 229 | 94.7% | 72.8% | 8.5% | – | 83.2% | 94.7% | 86.9% | 84.9% | 6.8% | – | – | 297 | – | –
CS(=O)(=O)c1ncc(Cl)c(C(=O)O)n1 [LX-917] | 42.5 | 223 | 101.8% | 45.8% | 4.7% | – | 93.2% | 101.5% | 65.7% | 17.1% | 3.5% | – | – | 269 | – | –
C[Se](=O)O [LX-3105, Methylseleninic acid] | 69.1 | 202 | 82.1% | 41.1% | 37.7% | 4.1% | 59.5% | 84% | 69.9% | 59.3% | 39.6% | – | – | 195 | – | –
Tocofersolan [LX-3001, reference compound] | 58.7 | – | 74.8% | – | – | – | 1.1% | 101.6% | 22.6% | – | – | – | 261 | 301 | – | –
CCOC(=O)[C@@H](N)CCC(=O)N[C@@H](CSCc1ccccc1)C(=O)N[C@@H](C(=O)OCC)c1ccccc1 [LX-2602, Ezatiostat, reference compound] | 69.5 | – | 97.3% | 76.9% | 47.6% | – | 92.5% | 102.7% | 96% | 32.5% | – | – | 283 | 208 | – | –
Cc1nnc(NC(=O)c2nc(S(=O)(=O)Cc3ccc(F)cc3)ncc2Cl)s1 [LX-916] | 48.7 | 198 | 103.5% | 54.5% | 3.5% | – | 94.2% | 103.9% | 71.7% | 24.4% | 1.7% | – | – | 317 | – | –
B1 | 64.3 | – | 84.4% | 48.5% | 25% | – | 71.2% | 68.7% | 21.1% | – | – | – | 254 | 243 | – | –
